The target of the assay is T1, human S1P1 receptor (Homo sapiens, UniProt P21453).
T1 construct: expressed in transfected cells; membranes used
Description: GTP γ35S binding assay for S1P1 activity. It counts as biochemical. To be noted: membranes, 30 min at 25° C., read-out: S1P1 EC50 (Activity potency: S1P1 receptor from GTP γ35S). The procedure:
Compounds were tested for S1P1 activity using the GTP γ^35S binding assay. These compounds may be assessed for their ability to activate or block activation of the human S1P1 receptor in cells stably expressing the S1P1 receptor.
GTP γ^35S binding was measured in the medium containing (mM) HEPES 25, pH 7.4, MgCl2 10, NaCl 100, dithitothreitol 0.5, digitonin 0.003%, 0.2 nM GTP γ^35S, and 5 μg membrane protein in a volume of 150 μl. Test compounds were included in the concentration range from 0.08 to 5,000 nM unless indicated otherwise. Membranes were incubated with 100 μM 5′-adenylylimmidodiphosphate for 30 min, and subsequently with 10 μM GDP for 10 min on ice. Drug solutions and membrane were mixed, and then reactions were initiated by adding GTP γ^35S and continued for 30 min at 25° C. Reaction mixtures were filtered over Whatman GF/B filters under vacuum, and washed three times with 3 mL of ice-cold buffer (HEPES 25, pH7.4, MgCl2 10 and NaCl 100). Filters were dried and mixed with scintillant, and counted for ^35S activity using a β-counter. Agonist-induced GTP γ^35S binding was obtained by subtracting that in the absence of agonist. Binding data were analyzed using a non-linear regression method. In case of antagonist assay, the reaction mixture contained 10 nM S1P in the presence of test antagonist at concentrations ranging from 0.08 to 5000 nM.
In general terms: Binding of GTPγS marks nucleotide exchange on a G protein.

One may read the EC50 as the concentration that produces a half-maximal response.

T1 sequence (P21453 whole entry): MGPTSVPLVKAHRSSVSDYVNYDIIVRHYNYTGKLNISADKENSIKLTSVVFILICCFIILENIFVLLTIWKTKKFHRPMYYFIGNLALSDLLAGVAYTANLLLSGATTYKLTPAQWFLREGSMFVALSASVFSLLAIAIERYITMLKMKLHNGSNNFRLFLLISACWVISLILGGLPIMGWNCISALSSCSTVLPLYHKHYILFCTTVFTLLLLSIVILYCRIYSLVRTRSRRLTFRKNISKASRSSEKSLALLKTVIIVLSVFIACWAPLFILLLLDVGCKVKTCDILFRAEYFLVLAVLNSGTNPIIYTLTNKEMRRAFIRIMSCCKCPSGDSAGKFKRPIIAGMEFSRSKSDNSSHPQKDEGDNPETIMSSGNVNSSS

As for `COc1cccc(CCCCCOc2ccc(CNCCCP(=O)(O)O)cc2-c2cccs2)c1` [Compound 19, (3-{[4-{[5-(3-methoxyphenyl)pentyl]oxy}-3-(2-thienyl)benzyl]amino}propyl)phosphonic acid], the EC50 turned out to be 1.12 µM.
Take `COc1ccc(CCCCCOc2ccc(CNCCCP(=O)(O)O)cc2-c2cccs2)cc1` [Compound 20, (3-{[4-{[5-(4-methoxyphenyl)pentyl]oxy}-3-(2-thienyl)benzyl]amino}propyl)phosphonic acid]: the concentration for a half-maximal effect (EC50) was 0.0486 µM.
With `O=P(O)(O)CCCNCc1ccc(OCCCCCc2ccc(F)cc2)c(-c2cccs2)c1` [Compound 21, (3-{[4-{[5-(4-fluorophenyl)pentyl]oxy}-3-(2-thienyl)benzyl]amino}propyl)phosphonic acid], the concentration giving a half-maximal response (EC50) is 0.0197 µM.
For `O=P(O)(O)CCCNCc1ccc(OCCCCCc2cccc(C(F)(F)F)c2)c(-c2ccco2)c1` [Compound 22, (3-{[3-(2-furyl)-4-({5-[3-(trifluoromethyl)phenyl]pentyl}oxy)benzyl]amino}propyl)phosphonic acid] the value was 0.0657 µM.
Take `COc1cccc(CCCCCOc2ccc(CNCCCP(=O)(O)O)cc2-c2ccco2)c1` [Compound 23, (3-{[3-(2-furyl)-4-{[5-(3-methoxyphenyl)pentyl]oxy}benzyl]amino}propyl)phosphonic acid]: the half-maximal effective concentration (EC50) turned out to be 0.24 µM.
For the molecule `O=P(O)(O)CCCNCc1ccc(OCCCCCc2ccc(F)cc2)c(-c2ccco2)c1` [Compound 24, (3-{[4-{[5-(4-fluorophenyl)pentyl]oxy}-3-(2-furyl)benzyl]amino}propyl)phosphonic acid], the concentration giving a half-maximal response (EC50) was determined as 0.00098 µM.
On to `O=P(O)(O)CCCNCc1ccc(OCCCCc2ccc(F)cc2)c(-c2cccs2)c1` [Compound 25, [3-({4-[4-(4-fluorophenyl)butoxy]-3-(2-thienyl)benzyl}amino)propyl]phosphonic acid], for which the EC50 stood at 0.0675 µM.
In the case of `O=P(O)(O)CCCNCc1ccc(OCCCCc2ccc(F)cc2)c(-c2ccco2)c1` [Compound 26, [3-({4-[4-(4-fluorophenyl)butoxy]-3-(2-furyl)benzyl}amino)propyl]phosphonic acid], the half-maximal effective concentration (EC50) turned out to be 0.0989 µM.
As to `COc1ccc(CCCCCOc2ccc(CNCCCP(=O)(O)O)cc2-c2ccco2)cc1F` [Compound 27, (3-{[4-{[5-(3-fluoro-4-methoxyphenyl)pentyl]oxy}-3-(2-furyl)benzyl]amino}propyl)phosphonic acid], the 50% effective concentration (EC50) was 0.007 µM.
To `COc1ccc(CCCCCOc2ccc(CNCCCP(=O)(O)O)cc2-c2cccs2)cc1F` [Compound 28, (3-{[4-{[5-(3-fluoro-4-methoxyphenyl)pentyl]oxy}-3-(2-thienyl)benzyl]amino}propyl)phosphonic acid] belongs 0.0019 µM; to `O=P(O)(O)CCCNCc1ccc(OCCCCCc2ccc(Cl)cc2)c(-c2ccco2)c1` [Compound 29, (3-{[4-{[5-(4-chlorophenyl)pentyl]oxy}-3-(2-furyl)benzyl]amino}propyl)phosphonic acid], 0.0057 µM.
With `O=P(O)(O)CCCNCc1ccc(OCCCCCc2ccc(Cl)cc2)c(-c2cccs2)c1` [Compound 30, (3-{[4-{[5-(4-chlorophenyl)pentyl]oxy}-3-(2-thienyl)benzyl]amino}propyl)phosphonic acid], the concentration for a half-maximal effect (EC50) is 0.008 µM.
For the molecule `COc1ccc(CCCCCOc2ccc(CNCCCP(=O)(O)O)cc2-c2ccco2)cc1Cl` [Compound 31, (3-{[4-{[5-(3-chloro-4-methoxyphenyl)pentyl]oxy}-3-(2-furyl)benzyl]amino}propyl)phosphonic acid], the concentration giving a half-maximal response (EC50) was 0.0084 µM.
In the case of `COc1ccc(CCCCCOc2ccc(CNCCCP(=O)(O)O)cc2-c2cccs2)cc1Cl` [Compound 32, (3-{[4-{[5-(3-chloro-4-methoxyphenyl)pentyl]oxy}-3-(2-thienyl)benzyl]amino}propyl)phosphonic acid], the EC50 turned out to be 0.0065 µM.
As for `COc1ccc(CCCCCOc2ccc(CNCCCP(=O)(O)O)cc2-c2ccco2)cc1` [Compound 33, (3-{[3-(2-furyl)-4-{[5-(4-methoxyphenyl)pentyl]oxy}benzyl]amino}propyl)phosphonic acid], the EC50 was 0.0071 µM.
`COc1cccc(CCCCCOc2ccc(CNCCCP(=O)(O)O)cc2-c2ccoc2)c1` [Compound 34, (3-{[3-(3-furyl)-4-{[5-(3-methoxyphenyl)pentyl]oxy}benzyl]amino}propyl)phosphonic acid]: the EC50 worked out at 0.0125 µM.
As for `O=P(O)(O)CCCNCc1ccc(OCCCCCc2ccccc2)c(-c2cocn2)c1` [Compound 35, [3-({3-(1,3-oxazol-4-yl)-4-[(5-phenylpentyl)oxy]benzyl}amino)propyl]phosphonic acid], the EC50 came out at 0.0541 µM.
To `CC(CCNCc1ccc(OCCCCCc2ccccc2)c(-c2ccco2)c1)P(=O)(O)O` (stereo not drawn) [Compound 36, [3-({3-(2-furyl)-4-[(5-phenylpentyl)oxy]benzyl}amino)-1-methylpropyl]phosphonic acid] belongs 0.0185 µM; to `O=[PH](O)CCCNCc1ccc(OCCCCCc2ccccc2)c(-c2cccs2)c1` [Compound 37, [3-({4-[(5-phenylpentyl)oxy]-3-(2-thienyl)benzyl}amino)propyl]phosphinic acid], 0.0526 µM; to `O=P(O)(O)CCCNCc1ccc(OCCCCCc2ccccc2)c(-c2ccc(F)o2)c1` [Compound 38, [3-({3-(5-fluoro-2-furyl)-4-[(5-phenylpentyl)oxy]benzyl}amino)propyl]phosphonic acid], 0.0019 µM.
As to `O=P(O)(O)CCCNCc1ccc(OCCCCCc2cccc(Cl)c2)c(-c2ccco2)c1` [Compound 39, (3-{[4-{[5-(3-chlorophenyl)pentyl]oxy}-3-(2-furyl)benzyl]amino}propyl)phosphonic acid], the 50% effective concentration (EC50) came to 0.0328 µM.
As for `Cc1cccc(CCCCCOc2ccc(CNCCCP(=O)(O)O)cc2-c2ccco2)c1` [Compound 40, (3-{[3-(2-furyl)-4-{[5-(3-methylphenyl)pentyl]oxy}benzyl]amino}propyl)phosphonic acid], the EC50 was 0.0349 µM.
Regarding `O=P(O)(O)C(F)(F)CCNCc1ccc(OCCCCCc2ccccc2)c(-c2ccc(F)o2)c1` [Compound 41, [1,1-difluoro-3-({3-(5-fluoro-2-furyl)-4-[(5-phenylpentyl)oxy]benzyl}amino)propyl]phosphonic acid], the half-maximal effective concentration (EC50) was determined as 0.0536 µM.
`CC(NCCCP(=O)(O)O)c1ccc(OCCCCCc2ccccc2)c(-c2cccs2)c1` (stereo not drawn) [Compound 42, {3-[(1-{4-[(5-phenylpentyl)oxy]-3-(2-thienyl)phenyl}ethyl)amino]propyl}phosphonic acid]: the EC50 was 0.0164 µM.
For the molecule `O=P(O)(O)CCCNCc1ccc(OCCCCCc2ccccc2)c(-n2cccn2)c1` [Compound 43, [3-({4-[(5-phenylpentyl)oxy]-3-(1H-pyrazol-1-yl)benzyl}amino)propyl]phosphonic acid], the 50% effective concentration (EC50) is 0.0085 µM.
Take `O=P(O)(O)CCCNCc1ccc(OCCCCCc2ccccc2)c(-n2cccc2)c1` [Compound 44, [3-({4-[(5-phenylpentyl)oxy]-3-(1H-pyrrol-1-yl)benzyl}amino)propyl]phosphonic acid]: the half-maximal effective concentration (EC50) is 0.0034 µM.
Regarding `[2H]C([2H])(CCCCc1ccccc1)Oc1ccc(CNCCCP(=O)(O)O)cc1-c1ccco1` [Compound 45, [3-({3-(2-furyl)-4-[(5-phenylpentyl)oxy]benzyl}amino)propyl]phosphonic acid-d_2—], the EC50 is 0.0017 µM.
Turning to `O=P(O)(O)CCCNCc1ccc(NCCCCCc2ccccc2)c(-c2ccco2)c1` [Compound 46, [3-({3-(2-furyl)-4-[(5-phenylpentyl)amino]benzyl}amino)propyl]phosphonic acid], the EC50 came to 0.0015 µM.
Take `O=P(O)(O)CCCNCc1ccc(NCCCCCc2ccccc2)c(-c2ncco2)c1` [Compound 47, [3-({3-(1,3-oxazol-2-yl)-4-[(5-phenylpentyl)amino]benzyl}amino)propyl]phosphonic acid]: the 50% effective concentration (EC50) was 0.0156 µM.
For the molecule `O=P(O)(O)CCCNCc1ccc(NCCCCCc2ccccc2)c(-c2nccs2)c1` [Compound 48, [3-({4-[(5-phenylpentyl)amino]-3-(1,3-thiazol-2-yl)benzyl}amino)propyl]phosphonic acid], the EC50 is 0.0174 µM.
Consider `O=P(O)(O)CCCNCc1ccc(OCCCCCc2ccccc2F)c(-c2ccco2)c1` [Compound 49, (3-{[4-{[5-(2-fluorophenyl)pentyl]oxy}-3-(2-furyl)benzyl]amino}propyl)phosphonic acid], for which the EC50 was 0.001 µM.
Consider `O=P(O)(O)CCCNCc1ccc(OCCCCCc2ccccc2F)c(-c2ccoc2)c1` [Compound 50, (3-{[4-{[5-(2-fluorophenyl)pentyl]oxy}-3-(3-furyl)benzyl]amino}propyl)phosphonic acid], for which the EC50 was below 0.025 µM.
As for `O=P(O)(O)CCCNCc1cc(-c2ccco2)c(OCCCCCc2ccccc2)cc1F` [Compound 51, [3-({2-fluoro-5-(2-furyl)-4-[(5-phenylpentyl)oxy]benzyl}amino)propyl]phosphonic acid], the concentration giving a half-maximal response (EC50) was found to be 0.001 µM.
